Laboratory results reported in patent US8546377B2 (AbbVie Inc., priority 2009, dated 2013).

Legend:
[1] = biological target: T1, human serotonin 5-HT2c receptor (Homo sapiens, UniProt P28335); experiment: Human 5-HT2C receptor radioligand binding assay (agonist site, [125I](±)DOI); conditions: membranes of transfected CHO cells, 0.2 nM [125I](±)DOI, 15 minutes at 37° C.
T1 construct: expressed in transfected cells; host or cells: CHO cells (membrane homogenate)
T1 sequence (P28335 33-458): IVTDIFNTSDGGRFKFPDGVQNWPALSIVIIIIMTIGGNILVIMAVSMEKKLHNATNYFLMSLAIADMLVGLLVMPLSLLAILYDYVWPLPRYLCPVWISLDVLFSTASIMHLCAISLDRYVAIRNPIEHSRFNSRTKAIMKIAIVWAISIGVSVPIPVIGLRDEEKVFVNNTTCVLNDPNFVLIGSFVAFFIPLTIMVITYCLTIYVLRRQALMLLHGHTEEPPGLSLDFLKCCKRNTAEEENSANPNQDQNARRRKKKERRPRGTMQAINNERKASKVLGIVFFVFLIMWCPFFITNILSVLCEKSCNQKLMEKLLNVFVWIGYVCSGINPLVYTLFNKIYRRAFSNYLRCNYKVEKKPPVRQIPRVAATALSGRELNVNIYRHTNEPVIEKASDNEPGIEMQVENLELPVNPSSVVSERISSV
Outline: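 Affinity for the agonist site measured by radioligand binding in transfected CHO cells expressing the human receptor, using [125I](±)DOI.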

h-5-HT6 receptor = biological target: T2, h-5-HT6 receptor (Homo sapiens, UniProt P50406); experiment: Human 5-HT6 receptor radioligand binding assay ([3H]-LSD, HEK293 membranes); conditions: HEK293 membranes, 1 nM [3H]-lysergic acid diethylamide, 3.5 hours at room temperature; read-out: Ki (μM), 5-HT6 Agonist Site Radioligand Binding
T2 construct: expressed in transfected cells; host or cells: HEK293 cells (membrane preparation)
T2 sequence (P50406 whole entry): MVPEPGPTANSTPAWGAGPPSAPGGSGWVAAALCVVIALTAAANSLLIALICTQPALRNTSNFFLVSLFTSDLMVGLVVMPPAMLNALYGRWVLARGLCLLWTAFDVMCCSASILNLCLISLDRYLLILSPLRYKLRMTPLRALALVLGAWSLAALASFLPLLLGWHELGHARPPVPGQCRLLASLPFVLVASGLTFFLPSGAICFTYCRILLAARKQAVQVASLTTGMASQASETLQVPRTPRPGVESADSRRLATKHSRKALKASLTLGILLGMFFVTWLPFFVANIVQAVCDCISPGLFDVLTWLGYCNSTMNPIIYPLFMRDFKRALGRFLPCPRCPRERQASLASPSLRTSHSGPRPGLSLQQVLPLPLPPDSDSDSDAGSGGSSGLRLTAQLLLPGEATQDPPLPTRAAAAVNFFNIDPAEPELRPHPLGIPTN
Method: (iv) Human 5-HT6 Receptor Radioligand Binding Assay
Preparation of Membranes by Ultrasonic Treatment and Differential Centrifugation
Cells from stable clonal cell lines expressing the corresponding receptor (5-HT6) were washed with PBS (without Ca^++, Mg^++) and harvested in PBS with 0.02% EDTA. The cells were collected by centrifugation at 500 g for 10 minutes at 4° C., washed with PBS and centrifuged (500 g, 10 minutes at 4° C.). The pellets were stored at −80° C. until use. For membrane preparation, the thawed cell pellet was resuspended in ice-cold sucrose buffer (0.25 M sucrose, 10 mM HEPES (pH 7.4), 1 mM phenylmethylsulfonyl fluoride (PMSF) in DMSO, 5 μg/ml Pepstatin-A, 3 mM EDTA, 0.025% Bacitracin) and homogenized with a Branson Sonifier W-250 (Settings: Timer 4; Output Control 3; Duty Cycle constant; 2 to 3 cycles). Cell disruption was checked with the aid of a microscope. Remaining unbroken cells were pelleted at 1,000 g for 10 minutes at 4° C. The sucrose buffer supernatant was then centrifuged at 60,000 g for 1 hour at 4° C. (Beckman Ultrazentrifuge XL 80). The pellet was resuspended in 30 mL of ice-cold Tris buffer (20 mM TRIS (pH 7.4), 5 μg/mL Pepstatin A, 0.1 mM PMSF, 3 mM EDTA) by pipetting through a 10 mL serological pipet and centrifuged for 1 hour at 4° C. at 60,000 g. A final resuspension was performed in a small volume of ice-cold Tris buffer (see above) by pressing through a serological pipet followed by ultrasonic treatment with a Branson Sonifier W-250 (Settings: Timer 1; Output Control 3; Duty Cycle constant; 1 cycle). Protein concentration was determined (BCA-Kit; Pierce) and aliquots stored at −80° C. or in liquid nitrogen for long-term storage.
Receptor Binding Experiments
All receptor binding experiments were carried out in the corresponding assay buffer in a total volume of 200 μL in the presence of various concentrations of test compound (10^−5 M to 10^−9 M, tenfold serial dilution, duplicate determinations). The assays were terminated by filtration on polyethylenimine (PEI 0.1% or 0.3%) presoaked Packard Unifilter Plates (GF/C or GF/B) with a Tomtec MachIII U 96 well-plate harvester. After the plates had been dried for 2 hours at 55° C. in a drying chamber scintillation cocktail (BetaPlate Scint; PerkinElmer) was added. Radioactivity was measured in a Microbeta Trilux two hours after the addition of the scintillation mixture.
5-HT6 Receptor Binding Assay
HEK293 cells stably expressing the h-5-HT6 receptor (NCBI Reference Sequence XM 001435) were cultured in RPMI1640 medium supplemented with 25 mM HEPES, 10% fetal calf serum and 1-2 mM glutamine. The membrane preparation was performed as described above. […] On the day of the assay, the membranes were thawed, diluted in assay buffer (50 mM Tris-HCl, 5 mM CaCl2, 0.1% ascorbic acid, 10 μM pargyline, pH 7.4) to a concentration of 8 μg protein/assay and homogenized by gentle vortexing. […] Non-specific binding was defined with 1 μM methiothepin. The binding reaction was carried out for 3.5 hours at room temperature. During the incubation, the plates were shaken on a plate shaker at 100 rpm and terminated by filtration on Packard Unifilter GF/C (0.1% PEI) plates, followed by 2 wash cycles with ice-cold 50 mM Tris-HCl, 5 mM CaCl2.
Data derived from liquid scintillation counting were analyzed by iterative non-linear regression analysis with the use of the Statistical Analysis System (SAS): a program similar to “LIGAND” as described by Munson and Rodbard (Anal. Biochem. 1980, 107, 220-239). Fitting was performed according to formulae described by Feldman (Anal. Biochem. 1972, 48, 317-338). IC50, nH and Ki values were expressed as geometrical mean.
The results of the receptor binding studies are expressed as receptor binding constants Ki(5-HT6) as described herein before, and given in Table 5.

## O=C1NCC2CNCCN2c2ccc(NS(=O)(=O)c3ccccc3)cc21 (centres unmarked) [Example 48, N-(7-oxo-1,2,3,4,4a,5,6,7-octahydropyrazino[1,2-a][1,4]benzodiazepin-9-yl)benzenesulfonamide]
[1]
  Ki: 27 µM
h-5-HT6 receptor
  Ki: 0.045 µM
